Among the data in patent publication US7902234B2, “Thiadiazoline derivative” (Kyowa Hakko Kirin Co., Ltd., priority 2001, dated 2011) are GI50 values, retold here.

SMILES strings stand for the structures.

For the assay, the system named is HCT 116 cells. Nature of the assay: Antiproliferative activity in HCT 116 human colon cancer cells (XTT). Type of assay: cell-based. Particulars: 72 hours incubation with compound, XTT absorbance 490 nm minus 655 nm, read-out: GI50 (concentration of 50% proliferation inhibition). On the procedure:
HCT 116 cells (ATCC No.: CCL-247) were placed on a 96-well microliter plate (Nunc, 167008) at a density of 1×10^3 cells/well. The plate was incubated in a 5% CO2 incubator at 37° C. for 24 hours, and then to the plate was added test compounds diluted stepwise to […] in total, and the plate was further incubated in a 5% CO2 incubator at 37° C. for 72 hours. To the culture medium, the XTT (sodium 3′-[1-(phenylaminocarbonyl)-3,4-tetrazolium)-bis(4-methoxy-6-nitro)benzenesulfonic acid hydrate) labeling mixture (Roche Diagnostics, 1465015) was dispensed in […] portions, then the plate was incubated in a 5% CO2 incubator at 37° C. for 1 hour, and the absorbance was measured at 490 nm and 655 nm with a microplate spectrophotometer (Bio-Rad, Model 550). The inhibitory activity against cell proliferation was shown as a concentration of 50% proliferation inhibition, GI50.
GI50 calculation method: The value (difference in absorbance) was calculated by subtracting the absorbance at 655 nm from the absorbance at 490 nm of each well. […]

For the compound `CC(=O)NC1=NN(C(C)=O)C(C)(c2ccccc2)S1` (centres unmarked) [Compound 1], the GI50 turned out to be 1000 nM.
The value for `CC(=O)N(C)C1=NN(C(C)=O)C(C)(c2ccccc2)S1` (centres unmarked) [Compound 7] was 480 nM.
